The numbers were not newly measured in PubChem BioAssay AID1259410 (Chemical Carcinogenesis Research Information System (CCRIS), 2018), which cites them from elsewhere.

This data set relates to rodent tumor promotion studies, tumor incidence. The data set can be described thus: CCRIS tumor promotion studies.

For `Clc1cccc(-c2ccc(Cl)c(Cl)c2Cl)c1Cl`, the outcome is listed as “lung: tumor” (Carcinogen: 4-(METHYLNITROSAMINO)-1-(3-PYRIDYL)-1-BUTANONE, 64091-91-4, Doses [Carcinogen]: 50 MG/KG ON D 4 OF LIFE, Doses [Promoter]: 500 MG/KG ONCE ON D 56 OF LIFE (STUDY DURATION: 52 WK), Route [Carcinogen]: INTRAPERITONEAL, Route [Promoter]: INTRAGASTRIC, Species: MOUSE, Strain/Sex: SWISS/FEMALE); “liver: hepatocellular adenoma or carcinoma” (Carcinogen: 4-(METHYLNITROSAMINO)-1-(3-PYRIDYL)-1-BUTANONE, 64091-91-4, Doses [Carcinogen]: 100 MG/KG (0.5 MMOL) IN 0.9% STERILE SALINE ON DAYS 15, 17, AND 19 OF GESTATION, Doses [Promoter]: 0, 500 MG/KG IN OLIVE OIL ON POSTNATAL DAY 56 (STUDY DURATION: 72 WK), Route [Carcinogen]: TRANSPLACENTAL, Route [Promoter]: GAVAGE, Species: MOUSE, Strain/Sex: SWISS/MALE); “lung: tumor” (Carcinogen: 4-(METHYLNITROSAMINO)-1-(3-PYRIDYL)-1-BUTANONE, 64091-91-4, Doses [Carcinogen]: 100 MG/KG IN 0.9% SALINE ON GESTATION DAYS 15, 17 AND 19, Doses [Promoter]: 500 MG/KG ONCE ON D 56 OF LIFE TO OFFSPRING OF CARCINOGEN-TREATED MOTHERS (STUDY DURATION: 52 WK), Route [Carcinogen]: INTRAPERITONEAL, Route [Promoter]: INTRAGASTRIC, Species: MOUSE, Strain/Sex: SWISS/MALE); “liver: tumor” (Carcinogen: DIETHYLNITROSAMINE, 55-18-5, Doses [Carcinogen]: 90 MG/KG BW ONCE, Doses [Promoter]: 0, 100 PPM IN DIET FOR 20 WK BEGINNING 3 WK POST CARCINOGEN DOSE (STUDY DURATION: 47 WK), Route [Carcinogen]: INTRAPERITONEAL, Route [Promoter]: ORAL, Species: MOUSE, Strain/Sex: C57BL/MALE); “liver: hepatocellular carcinoma” (Carcinogen: DIETHYLNITROSAMINE, 55-18-5, Doses [Carcinogen]: 1100 PPM IN DIET FOR 1 YR, Doses [Promoter]: 0, 100 PPM IN DIET FOR 1 YR (STUDY DURATION: 1 YR), Route [Carcinogen]: ORAL, Route [Promoter]: ORAL, Species: FISH, Strain/Sex: RAINBOW TROUT/MALE, FEMALE); “thyroid: carcinoma” (Carcinogen: DIISOPROPANOLNITROSAMINE [53609-64-6], Doses [Carcinogen]: SINGLE DOSE OF 2.5 G/KG BW, Doses [Promoter]: 100 PPM IN DIET BEGINNING 1 WK AFTER DIPN TREATMENT FOR 19 WKS (STUDY DURATION: 20 WKS), Route [Carcinogen]: SUBCUTANEOUS INJECTION, Route [Promoter]: DIET, Species: RAT, Strain/Sex: SPRAGUE-DAWLEY/MALE). Besides, the outcome is “liver: hepatocellular adenoma, hepatocellular carcinoma” (Carcinogen: N-NITROSODIETHYLAMINE, 55-18-5, Doses [Carcinogen]: 90 MG/KG BW ONCE, Doses [Promoter]: 0, 175, 350 PPM IN DIET FOR 53 WK BEGINNING 2 WK POST CARCINOGEN DOSE (STUDY DURATION: 55 WK), Doses [Promoter]: 0, 175, 350 PPM IN DIET FOR 53 WK BEGINNING 2 WK POST CARCINOGEN DOSE (STUDY DURATION: 55 WK), Route [Carcinogen]: INTRAPERITONEAL, Route [Promoter]: ORAL, Species: MOUSE, Strain/Sex: D2B6F1/MALE); “lung: tumor” (Carcinogen: N-NITROSODIMETHYLAMINE, 62-75-9, Doses [Carcinogen]: 5 MG/KG IN SALINE ONCE AT 4 DAYS OF AGE, Doses [Promoter]: 0, 250 MG/KG IN OLIVE OIL ONCE AT 8 DAYS OF AGE (STUDY DURATION: 28 WK), Route [Carcinogen]: INTRAPERITONEAL, Route [Promoter]: GAVAGE, Species: MOUSE, Strain/Sex: SWISS/MALE); “lung: tumor; liver: tumor” (Carcinogen: N-NITROSODIMETHYLAMINE, 62-75-9, Doses [Carcinogen]: 5 MG/KG IN SALINE ONCE AT 4 DAYS OF AGE, Doses [Promoter]: 0, 250 MG/KG IN OLIVE OIL ONCE AT 8 DAYS OF AGE (STUDY DURATION: 52 WK), Route [Carcinogen]: INTRAPERITONEAL, Route [Promoter]: GAVAGE, Species: MOUSE, Strain/Sex: SWISS/MALE); “lung: tumor; liver: tumor” (Carcinogen: N-NITROSODIMETHYLAMINE, 62-75-9, Doses [Carcinogen]: 5 MG/KG ON D 4 OF LIFE, Doses [Promoter]: 500 MG/KG ONCE ON D 56 OF LIFE (STUDY DURATION: 52 WK), Route [Carcinogen]: INTRAPERITONEAL, Route [Promoter]: INTRAGASTRIC, Species: MOUSE, Strain/Sex: SWISS/MALE); “lung: tumor” (Carcinogen: N-NITROSODIMETHYLAMINE, 62-75-9, Doses [Carcinogen]: 10 MG/KG IN SALINE ON GESTATION D 19, Doses [Promoter]: 500 MG/KG ONCE ON D 56 OF LIFE TO OFFSPRING OF CARCINOGEN-TREATED MOTHERS (STUDY DURATION: 52 WK), Route [Carcinogen]: INTRAPERITONEAL, Route [Promoter]: INTRAGASTRIC, Species: MOUSE, Strain/Sex: SWISS/MALE).
Take `COC(=O)/C=C/C=C/CCCCCCCCCCCCCO`: the outcome (Carcinogen: 7,12-DIMETHYLBENZ(A)ANTHRACENE, Doses [Carcinogen]: TOP, Route [Carcinogen]: DERMAL, Route [Promoter]: DERMAL, Species: MOUSE, Strain/Sex: MALE,FEMALE) is recorded as “integumentary system (skin)”.
`Oc1ccc(O)cc1`: the outcome is, setting by setting: (Carcinogen: N-ETHYL-N-HYDROXYETHYLNITROSAMINE, 13147-25-6, Doses [Carcinogen]: 0.1% IN DRINKING WATER FOR 3 WK, Doses [Promoter]: 0, 0.8% IN DIET FOR 36 WK BEGINNING 1 WK POST CARCINOGEN TREATMENT (STUDY DURATION: 40 WK), Route [Carcinogen]: ORAL, Route [Promoter]: ORAL, Species: RAT, Strain/Sex: WISTAR/MALE) “kidney: microadenoma, renal cell tumor”; (Carcinogen: N-METHYL-N-NITROSOUREA [684-93-5], Doses [Carcinogen]: 20 MG/KG BW ONCE ON DAY 9 AFTER BIRTH (STUDY DURATION: 28 WK), Doses [Promoter]: 0.8% IN DIET FOR 26 WK BEGINNING 2 WK POST LAST CARCINOGEN DOSE (STUDY DURATION: 28 WK), Route [Carcinogen]: INTRAPERITONEAL, Route [Promoter]: ORAL, Species: MOUSE, Strain/Sex: ICR (CD-1)/FEMALE) “lung: adenoma”; (Carcinogen: N-METHYL-N-NITROSOUREA [684-93-5], Doses [Carcinogen]: 20 MG/KG BW ONCE ON DAY 9 AFTER BIRTH (STUDY DURATION: 28 WK), Doses [Promoter]: 0.8% IN DIET FOR 26 WK BEGINNING 2 WK POST LAST CARCINOGEN DOSE (STUDY DURATION: 28 WK), Route [Carcinogen]: INTRAPERITONEAL, Route [Promoter]: ORAL, Species: MOUSE, Strain/Sex: ICR (CD-1)/MALE) “lung: carcinoma”.
Consider `O=S(=O)(O)NC1CCCCC1`, for which the outcome (Carcinogen: METHYLNITROSOUREA, Doses [Carcinogen]: BLADDER IMP, Doses [Promoter]: IN DIET, Route [Carcinogen]: BLADDER IMPLANT, Route [Promoter]: ORAL, Species: RAT, Strain/Sex: WISTAR/FEMALE) is reported as “urinary bladder”.
With `C[C@H](CCC(=O)O)[C@H]1CC[C@H]2[C@@H]3CC[C@@H]4C[C@H](O)CC[C@]4(C)[C@H]3CC[C@]12C`, the outcome is recorded as “gallbladder: tumor” (Carcinogen: 3-METHYLCHOLANTHRENE, 56-49-5, Doses [Carcinogen]: 3 MG IN BEESWAX PELLET, Doses [Promoter]: 0, 3 MG IN BEESWAX PELLET (STUDY DURATION: 5 MO), Route [Carcinogen]: IMPLANT, Route [Promoter]: IMPLANT, Species: HAMSTER) and “colon” (Doses [Carcinogen]: IR, Route [Carcinogen]: RECTAL, Route [Promoter]: RECTAL, Species: RAT, Strain/Sex: MALE,FEMALE).
For the molecule `COc1ccc2c(c1)c(CC(=O)O)c(C)n2C(=O)c1ccc(Cl)cc1`, under “Carcinogen: N-(4-(5-NITRO-2-FURYL)-2-THIAZOLYL)FORMAMIDE, 24554-26-5, Doses [Carcinogen]: 0.2% IN DIET FOR 7 WK, Doses [Promoter]: 0, 1 MG/KG/D IN DRINKING WATER FOR DURATION OF STUDY (STUDY DURATION: 92 WK), Route [Carcinogen]: ORAL, Route [Promoter]: ORAL, Species: RAT, Strain/Sex: SPRAGUE-DAWLEY/FEMALE”, the outcome is recorded as “urinary tract: tumor”.
Turning to `CC(=O)Oc1ccc(C(c2ccc(OC(C)=O)cc2)c2ccccn2)cc1`, the outcome (Carcinogen: AZOXYMETHANE, 25843-45-2, Doses [Carcinogen]: 15 MG/KG TWICE ON DAYS 1 AND 5 OF TREATMENT, Doses [Promoter]: 0, 4.3, 43 MG/KG/D 6 D/WK FOR 13 WK (STUDY DURATION: 13 WK), Doses [Promoter]: 0, 4.3, 43 MG/KG/D 6 D/WK FOR 13 WK (STUDY DURATION: 13 WK), Route [Carcinogen]: INTRAPERITONEAL, Route [Promoter]: GAVAGE, Species: RAT, Strain/Sex: WISTAR/MALE) was “colon: adenocarcinoma”.
With `CC(=O)O[C@]1(C(C)=O)CC[C@H]2[C@@H]3C[C@H](C)C4=CC(=O)CC[C@]4(C)[C@H]3CC[C@@]21C`, the outcome (Carcinogen: 7,12-DIMETHYLBENZ[A]ANTHRACENE, 57-97-6, Doses [Carcinogen]: 1 MG IN 0.1 ML COTTONSEED OIL 1/WK AT WKS 9,10,12 AND 13 OF AGE, Doses [Promoter]: 0, 20 MG EACH IN 2 PELLETS IMPLANTED IN THE INTERSCAPULAR AREA AT 6 WK OF AGE (STUDY DURATION: 15 MO), Route [Carcinogen]: GAVAGE, Route [Promoter]: SUBCUTANEOUS IMPLANT, Species: MOUSE, Strain/Sex: CD2F1/FEMALE) is reported as “mammary gland: tumor”; the outcome (Carcinogen: METHYLNITROSOUREA, 684-93-5, Doses [Carcinogen]: 50 MG/KG BW ONCE, Doses [Promoter]: 0, 40 MG DEPOT EVERY 3 MO BEGINNING 1 WK POST CARCINOGEN DOSE (STUDY DURATION: 9 MO), Route [Carcinogen]: INTRAPERITONEAL, Route [Promoter]: SUBCUTANEOUS, Species: MOUSE, Strain/Sex: BALB/FEMALE) is reported as “mammary gland: carcinoma”; the outcome (Carcinogen: METHYLNITROSOUREA, 684-93-5, Doses [Carcinogen]: 50 MG/KG BW ONCE, Doses [Promoter]: 0, 40 MG DEPOT EVERY 3 MO BEGINNING 1 WK PRIOR TO CARCINOGEN DOSE (STUDY DURATION: 9 MO), Route [Carcinogen]: INTRAPERITONEAL, Route [Promoter]: SUBCUTANEOUS, Species: MOUSE, Strain/Sex: BALB/FEMALE) is “mammary gland: carcinoma”.
